Patent US20200030259A1, “Antiestrogens and/or Aromatase Inhibitors for Use in Treating Obesity and Related Symptoms” (Repros Therapeutics Inc., priority 2016, published 2020)

How the values were obtained:
[1] = system: obese men with acquired hypogonadotropic hypogonadism; experiment: Phase 2 clinical trial: free and total (LCMS) testosterone; format: in vivo, human; settings: enclomiphene arms; FIG. 2B
From the text: (§1) FIGS. 2A and 2B illustrate lean mass (as a percentage of total mass in kilograms, measured by dual energy X-ray Absorptiometry (DXA)) and total testosterone levels at baseline and at the 3 month and 6 month time points in the subjects described at FIGS. 1A and 1B.
(§2) A randomized double blind placebo-controlled Phase 2 clinical study (duration=6 months) was initiated to study the effects of trans-clomiphene on testosterone, metabolic function, weight, body composition, measures of strength and quality of life assessments (made throughout the study) in obese men with acquired hypogonadotropic hypogonadism.
(§3) 50 adult male subjects are enrolled in the study with an average age of 43.3 (stdev 9.2), average BMI of 36.8 (stdev 3.2), average waist size of 46.9″ (stdev 4.1) and average body fat percentage of 38.1 (stdev 5.2). Average baseline testosterone levels in the subjects was 221.9 ng/dl (stdev 52.7), average estradiol level in the subjects was […] (stdev 14.8) and the average T:E ratio was 4.95 (stdev 1.7; normal range of T:E is 20-25). The top four reported baseline symptoms (by % of enrollees) were (i) fatigue/lack of energy (96%) (ii) depression, irritability, lack of focus (74%) (iii) poor libido (60%) and (iv) muscle weakness (48%). The subjects were provided a low calorie commercial diet for 6 months, gym membership for […] and access to a personal trainer for 6 months. […]

[2] = system: obese men with acquired hypogonadotropic hypogonadism; experiment: Phase 2 clinical trial: DISF-SR, IWQOL and SF-36 total scores; format: in vivo, human; settings: enclomiphene arms; 3 and 6 months; n=15 per group; FIG. 3
From the text: FIG. 3 illustrates percent improvement from baseline total score at the 3 month and 6 month time points in subjects described at FIGS. 1A and 1B (n=15 per group) in the DISF-SR (Derogatis Interview for Sexual Functioning), IWQOL (Impact of Weight on Quality of Life questionnaire) and SF-36 (Medical Outcomes Study Short Form).
as §2
50 adult male subjects are enrolled in the study with an average age of 43.3 (stdev 9.2), average BMI of 36.8 (stdev 3.2), average waist size of 46.9″ (stdev 4.1) and average body fat percentage of 38.1 (stdev 5.2). Average baseline testosterone levels in the subjects was 221.9 ng/dl (stdev 52.7), average estradiol level in the subjects was […] (stdev 14.8) and the average T:E ratio was 4.95 (stdev 1.7; normal range of T:E is 20-25). The top four reported baseline symptoms (by % of enrollees) were (i) fatigue/lack of energy (96%) (ii) depression, irritability, lack of focus (74%) (iii) poor libido (60%) and (iv) muscle weakness (48%). The subjects were provided a low calorie commercial diet for 6 months, gym membership for […] and access to a personal trainer for 6 months. Subjects were randomized to receive treatment with 12.5 mg enclomiphene/day, 25 mg enclomiphene/day or placebo via oral capsule over a […] period.

[3] = system: subjects in need of treatment for obesity; experiment: Treating obesity with an antiestrogen (Example 2); format: in vivo; settings: 5 mg to 100 mg daily or every other day for at least three months
Method: Subjects in need of treatment for obesity are administered an amount of an antiestrogen (e.g. trans-clomiphene or a salt or analogue thereof) in an amount effective to increase LH and FSH to therapeutic levels over a treatment period of sufficient duration to achieve the desired result, preferably for a period of at least 3 months during which an effective dose is administered daily or every other day. FSH and LH levels may be assessed prior to initiating treatment and then monitored through the course of treatment to ensure that therapeutic levels of the pituitary hormones are reached. By way of nonlimiting example, a subject with obesity is administered 5 mg to 100 mg trans-clomiphene daily or every other day for a treatment period of at least three months, preferably at least six months.

[4] = system: obese men with acquired hypogonadotropic hypogonadism; experiment: Phase 2 clinical trial: lean mass by dual energy X-ray Absorptiometry (DXA); format: in vivo, human; settings: placebo arm lost lean mass, FIG. 2A
From the text: as §1, §2, §3

[5] = system: obese men with acquired hypogonadotropic hypogonadism; experiment: Phase 2 clinical trial: morning testosterone; format: in vivo, human; settings: p<0.0001, FIG. 1B
Method: 50 adult male subjects are enrolled in the study with an average age of 43.3 (stdev 9.2), average BMI of 36.8 (stdev 3.2), average waist size of 46.9″ (stdev 4.1) and average body fat percentage of 38.1 (stdev 5.2). Average baseline testosterone levels in the subjects was 221.9 ng/dl (stdev 52.7), average estradiol level in the subjects was 48.1 μg/ml (stdev 14.8) and the average T:E ratio was 4.95 (stdev 1.7; normal range of T:E is 20-25). […] The subjects were provided a low calorie commercial diet for 6 months, gym membership for 15 month and access to a personal trainer for 6 months. Subjects were randomized to receive treatment with 12.5 mg enclomiphene/day, 25 mg enclomiphene/day or placebo via oral capsule over a three month period.

CCN(CC)CCOc1ccc(/C(=C(/Cl)c2ccccc2)c2ccccc2)cc1 [enclomiphene, trans-clomiphene]
free testosterone, baseline to six month time point [1]: increases | total (LCMS) testosterone, baseline to six month time point [1]: increases | percent improvement relative to baseline in DISF-SR total score [2]: statistically significant from baseline | percent improvement relative to baseline in IWQOL total score [2]: statistically significant from baseline | percent improvement relative to baseline in SF-36 total score [2]: statistically significant from baseline | symptoms of obesity during treatment [3]: reduction in one or more symptoms of obesity is observed | lean mass (percentage of total mass, DXA) at six months ([4]; 12.5 mg enclomiphene arm): gained lean mass | lean mass (percentage of total mass, DXA) at six months ([4]; 25 mg enclomiphene arm): gained lean mass | morning testosterone at six months ([5]; 12.5 mg enclomiphene/day oral capsule with weight loss regimen, baseline ~235 ng/dl): ~505 ng/dL | morning testosterone at six months ([5]; 25 mg enclomiphene/day oral capsule with weight loss regimen, baseline ~285 ng/dl): ~605 ng/dL
